Converted amounts (≈) assume the structure as drawn. Read-outs that look alike come from different tables or passages of the source.
Key:
[1] = Lipophilicity determination by RP-HPLC (capacity factor k / log k); type: physicochemical; details: C18 column, MeOH 70% / H2O 30%, isocratic
Description: Hydrophobicities (log P/Clog P) of the compounds 1-5 and 8-14 were calculated using two commercially available programs (ChemDraw Ultra 10.0 and ACD/LogP) and also measured by means of the RP-HPLC determination of capacity factors k with subsequent calculation of log k. The procedure was performed under isocratic conditions with methanol as an organic modifier in the mobile phase using an end-capped non-polar C18 stationary RP column. The results are shown in Table 1 and illustrated in Figure 1.
A Waters Alliance 2695 XE HPLC separation module and a Waters Photodiode Array Detector 2996 (Waters Corp., Milford, MA, USA) were used. A Symmetry® C18 5 μm, 4.6 × 250 mm, Part No. WAT054275 (Waters Corp., Milford, MA, USA) chromatographic column was used. The HPLC separation process was monitored by Empower™ 2 Chromatography Data Software, Waters 2009 (Waters Corp., Milford, MA, USA). A mixture of MeOH p.a. (70%) and H2O-HPLC – Mili-Q Grade (30%) was used as a mobile phase. The total flow of the column was 1.0 mL/min, injection volume 30 μL, column temperature 30 °C and sample temperature 10°C. The detection wavelength of 210 nm was chosen. The KI methanolic solution was used for the dead time (tD) determination. Retention times (tR) were measured in minutes. The capacity factors k were calculated using the Empower™ 2 Chromatography Data Software according to formula k = (tR - tD)/tD, where tR is the retention time of the solute, whereas tD denotes the dead time obtained using an unretained analyte. Log k, calculated from the capacity factor k, is used as the lipophilicity index converted to log P scale.

[2] = system: photosynthetic electron transport (PET) in spinach chloroplasts; assay: Inhibition of photosynthetic electron transport (PET) in spinach chloroplasts, DCPIP photoreduction; type: biochemical, Spinacia oleracea L.; details: for IC50: DCPIP photoreduction, pH 7.2
Description: Chloroplasts were prepared from spinach (Spinacia oleracea L.) according to Masarovicova and Kralova. The inhibition of photosynthetic electron transport (PET) in spinach chloroplasts was determined spectrophotometrically (Genesys 6, Thermo Scientific, USA), using an artificial electron acceptor 2,6-dichlorophenol-indophenol (DCIPP) according to Kralova et al., and the rate of photosynthetic electron transport was monitored as a photoreduction of DCPIP. The measurements were carried out in phosphate buffer (0.02 mol/L, pH 7.2) containing sucrose (0.4 mol/L), MgCl2 (0.005 mol/L) and NaCl (0.015 mol/L). The chlorophyll content was 30 mg/L in these experiments and the samples were irradiated (~100 W/m^2) from 10 cm distance with a halogen lamp (250 W) using a 4 cm water filter to prevent warming of the samples (suspension temperature 22 °C). The studied compounds were dissolved in DMSO due to their limited water solubility.

[3] = system: photosynthetic apparatus of spinach chloroplasts (PS 2 / PS 1); assay: Site of action: restoration of PET by artificial electron donors (DPC, DCPIPH2); type: biochemical, Spinacia oleracea L.
Description: To further determine the site of action of the studied compounds, experiments with 1,5-diphenylcarbazide (DPC) were performed. DPC is an artificial electron donor for PS 2 with a known site of action in the Z^•/D^• intermediate. The site of action of the artificial electron acceptor 2,6-dichlorophenol-indophenol (DCPIP) used for monitoring the Hill reaction is plastoquinone on the acceptor side of PS 2 [51]. Thus, if the part of the photosynthetic electron transport chain between manganese cluster and Z/D is inhibited, then DPC will restore PET through PS 2.

[4] = parameters: method as in PMID 1151976; details: parameter of the substituents in the anilide part; cited from earlier work
[5] = system: human SK-N-MC neuroepithelioma cell line; assay: In vitro anti-proliferative activity, MTT assay; type: cell-based; details: SK-N-MC cells, 72 h
Description: Therefore, the anti-proliferative activity of compounds 1-5 was examined against the human SK-N-MC neuroepithelioma cell line to determine if there were any undesired cytotoxic side-effects. The SK-N-MC cell line was chosen as the effect of iron chelators on the proliferation of these cells has been extensively examined. The anti-proliferative activity of the evaluated compounds was assessed in comparison to the well-known clinically used iron chelator, desferrioxamine (DFO), and the highly cytotoxic chelator, di-2-pyridylketone 4,4-dimethyl-3-thiosemicarbazone (Dp44mT).
The human SK-N-MC neuroepithelioma cell type was obtained from the American Type Culture Collection (Manassas, VA, USA) and was cultured in minimum essential medium (MEM; Gibco, Melbourne, Australia) containing 10% (v/v) FBS, 1.0 mM sodium pyruvate (Gibco), 1% (v/v) non-essential amino acids (Gibco), 2 mM L-glutamine (Gibco), 100 U/mL penicillin (Gibco), streptomycin (Gibco) and 0.28 μg/mL fungizone (Squibb Pharmaceuticals, Montreal, Canada). […]
The effect of the compounds on cellular proliferation was determined by the MTT [1-(4,5-dimethylthiazol-2-yl)-2,5-diphenyl tetrazolium] assay using standard techniques. […] After solubilization of the cells with 100 μL of 10% SDS-50% isobutanol in 0.01 M HCl, the plates were read at 570 nm using a scanning multi-well spectrophotometer.

Absidia corymbifera 272 = assay: In vitro anti-fungal susceptibility, broth microdilution; type: cell-based
Description: (§1) The broth microdilution test was used for the assessment of in vitro anti-fungal activity of the synthesized compounds against Absidia corymbifera 272 (AC) and Trichophyton mentagrophytes 445 (TM). Fluconazole (FLU) was used as the standard since it is a clinically used anti-mycotic drug. The procedure was performed with a two-fold dilution of the compounds in […]., Prague, Czech Republic) buffered to pH 7.0 with 0.165 mol of 3-morpholino-propane-1-sulfonic acid (MOPS, Sigma, Germany). […] Drug-free controls were included. […] The values of the minimum inhibitory concentration (MICs) were determined after 24 and 48 h of static incubation at 35 °C. For T. mentagrophytes, the final MICs were determined after 72 and 120 h of incubation.

[6] = system: Trichophyton mentagrophytes 445; assay: as above; type: cell-based; details: MIC = IC50 value, NA = no significant activity
Description: as §1

[7] = system: methicilin resistant Staphylococcus aureus H 5996/08; assay: In vitro anti-bacterial susceptibility, Mueller-Hinton broth; type: cell-based; details: MRSA, methicillin-resistant Staphylococcus aureus, MIC = IC90 value, NA = no significant activity
[8] = system: Staphylococcus epidermidis H 6966/08; assay: as above; type: cell-based; details: MIC = IC90 value, NA = no significant activity
[9] = Solubility in the PET testing medium (observation); type: physicochemical; details: precipitation during the experiments
Text: The activity of the rest of the studied compounds was moderate or low relative to the standard. PET inhibition by 8 or 9 could not be determined due to precipitation of the compounds during the experiments. With respect to these small but closed specifically substituted groups of compounds some structure-activity relationships (SAR) can be proposed.

[10] = Lichtheimia corymbifera, 272, 24 h, read-out: MIC AC 24 h
[11] = Lichtheimia corymbifera, 272, 48 h, read-out: MIC AC 48 h
[12] = H6966/08, 24 h, read-out: MIC SE 24 h
[13] = H6966/08, 48 h, read-out: MIC SE 48 h

COC(=O)Nc1ccc(C(=O)NCc2ccccc2Cl)cc1 [Compound 13, Methyl 4-(2-chlorobenzylcarbamoyl)phenylcarbamate]
log k [1]: 0.6345 | IC50 [2]: 1.6 µM | restoration of PET through PS 1 after addition of DCPIPH2 ([3]; DCPIPH2 40 μmol/L added to treated chloroplasts): completely restored | restoration of PET through PS 2 after addition of DPC ([3]; DPC 2 mmol/L added to treated chloroplasts): not restored | MR (bulk parameter, reflecting bulkiness) [4]: 4.7 | σ (Hammett's parameter) [4]: 0.67

CN(C)C(=S)NN=C(c1ccccn1)c1ccccn1 [Dp44mT, di-2-pyridylketone 4,4-dimethyl-3-thiosemicarbazone]
IC50 [5]: 0.01 ± 0.01 µM

Cc1cccc(C)c1NC(=O)c1ccccc1O [Compound 2, N-(2,6-Dimethylphenyl)-2-hydroxybenzamide]
log k [1]: 0.6807 | IC50 [2]: 331 µM | MIC (Absidia corymbifera 272; [10]): > 250 µM | MIC (Absidia corymbifera 272; [11]): > 250 µM | MIC ([6]; 72 h, read-out: MIC TM 72 h): 250 µM (≈ 60.3 µg/mL) | MIC ([6]; 120 h, read-out: MIC TM 120 h): 500 µM (≈ 121 µg/mL) | MIC ([7]; 24 h, read-out: MIC MRSA 24 h): > 500 µM | MIC ([7]; 48 h, read-out: MIC MRSA 48 h): > 500 µM | MIC [8, 12]: > 500 µM | MIC [8, 13]: > 500 µM | MR (bulk parameter, reflecting bulkiness) [4]: 9.4 | σ (Hammett's parameter) [4]: 0.20

O=C(Nc1ccccc1Cl)c1ccc([N+](=O)[O-])cc1 [Compound 8, N-(2-Chlorophenyl)-4-nitrobenzamide]
log k [1]: 0.6782 | solubility in the testing medium [9]: low solubility | MR (bulk parameter, reflecting bulkiness) [4]: 4.7 | σ (Hammett's parameter) [4]: 0.67

O=C(NCc1ccccc1Cl)c1ccc([N+](=O)[O-])cc1 [Compound 9, N-(2-Chlorobenzyl)-4-nitrobenzamide]
log k [1]: 0.6966 | solubility in the testing medium [9]: low solubility | MR (bulk parameter, reflecting bulkiness) [4]: 4.7 | σ (Hammett's parameter) [4]: 0.67

CC(=O)N(O)CCCCCNC(=O)CCC(=O)N(O)CCCCCNC(=O)CCC(=O)N(O)CCCCCN [DFO, desferrioxamine]
IC50 ([5]; Homo sapiens): 17.1 ± 3.77 µM

CCOc1ccccc1NC(=O)c1ccccc1O [Compound 4, N-(2-Ethoxyphenyl)-2-hydroxybenzamide]
log k [1]: 0.7515 | IC50 [2]: 15 µM | MIC (Absidia corymbifera 272; [10]): 62.5 µM (≈ 16.1 µg/mL) | MIC (Absidia corymbifera 272; [11]): 125 µM (≈ 32.2 µg/mL) | MIC ([6]; 72 h, read-out: MIC TM 72 h): 62.5 µM (≈ 16.1 µg/mL) | MIC ([6]; 120 h, read-out: MIC TM 120 h): 62.5 µM (≈ 16.1 µg/mL) | MIC ([7]; 24 h, read-out: MIC MRSA 24 h): 125 µM (≈ 32.2 µg/mL) | MIC ([7]; 48 h, read-out: MIC MRSA 48 h): 125 µM (≈ 32.2 µg/mL) | MIC [8, 12]: 125 µM (≈ 32.2 µg/mL) | MIC [8, 13]: 125 µM (≈ 32.2 µg/mL) | MR (bulk parameter, reflecting bulkiness) [4]: 11.3 | σ (Hammett's parameter) [4]: 0.02

COC(=O)Nc1ccc(C(=O)Nc2cc(C(F)(F)F)ccc2Cl)cc1 [Compound 14, Methyl 4-[2-chloro-5-(trifluoromethyl)phenylcarbamoyl]phenylcarbamate]
log k [1]: 0.7782 | IC50 [2]: 1 µM | MR (bulk parameter, reflecting bulkiness) [4]: 8.7 | σ (Hammett's parameter) [4]: 1.10

Nc1ccc(C(=O)NCc2ccccc2Cl)cc1 [Compound 11, 4-Amino-N-(2-chlorobenzyl)benzamide]
log k [1]: 0.5886 | PET-inhibiting / biological activity in words [2]: very low activity | IC50 [2]: 398 µM | MR (bulk parameter, reflecting bulkiness) [4]: 4.7 | σ (Hammett's parameter) [4]: 0.67

CCCOc1ccccc1NC(=O)c1ccccc1O [Compound 5, 2-Hydroxy-N-(2-propoxyphenyl)benzamide]
log k [1]: 0.8401 | IC50 [2]: 44.8 µM | MIC (Absidia corymbifera 272; [10]): 31.2 µM (≈ 8.48 µg/mL) | MIC (Absidia corymbifera 272; [11]): 31.2 µM (≈ 8.48 µg/mL) | MIC ([6]; 72 h, read-out: MIC TM 72 h): 31.2 µM (≈ 8.48 µg/mL) | MIC ([6]; 120 h, read-out: MIC TM 120 h): 31.2 µM (≈ 8.48 µg/mL) | MIC ([7]; 24 h, read-out: MIC MRSA 24 h): 31.2 µM (≈ 8.48 µg/mL) | MIC ([7]; 48 h, read-out: MIC MRSA 48 h): 31.2 µM (≈ 8.48 µg/mL) | MIC [8, 12]: 31.2 µM (≈ 8.48 µg/mL) | MIC [8, 13]: 31.2 µM (≈ 8.48 µg/mL) | MR (bulk parameter, reflecting bulkiness) [4]: 15.9

CC1(C)S[C@@H]2[C@H](NC(=O)Cc3ccccc3)C(=O)N2[C@H]1C(=O)O [PEN, Penicillin G, reference compound]
MIC ([7]; 24 h, read-out: MIC MRSA 24 h): 125 µM (≈ 41.8 µg/mL) | MIC ([7]; 48 h, read-out: MIC MRSA 48 h): 125 µM (≈ 41.8 µg/mL) | MIC [8, 12]: 31.6 µM (≈ 10.6 µg/mL) | MIC [8, 13]: 125 µM (≈ 41.8 µg/mL)

Nc1ccc(C(=O)Nc2cc(C(F)(F)F)ccc2Cl)cc1 [Compound 12, 4-Amino-N-[2-chloro-5-(trifluoromethyl)phenyl]benzamide]
PET-inhibiting / biological activity in words [2]: did not show any biological activity in any of the assays | MR (bulk parameter, reflecting bulkiness) [4]: 8.7 | σ (Hammett's parameter) [4]: 1.10

OC(Cn1cncn1)(Cn1cncn1)c1ccc(F)cc1F [FLU, Fluconazole, reference compound]
MIC (Absidia corymbifera 272; [10]): > 125 µM | MIC (Absidia corymbifera 272; [11]): > 125 µM | MIC ([6]; 72 h, read-out: MIC TM 72 h): 1.95 µM (≈ 0.597 µg/mL) | MIC ([6]; 120 h, read-out: MIC TM 120 h): 3.91 µM (≈ 1.2 µg/mL)

O=C(Nc1cc(C(F)(F)F)ccc1Cl)c1ccc([N+](=O)[O-])cc1 [Compound 10, N-[2-Chloro-5-(trifluoromethyl)phenyl]-4-nitrobenzamide]
log k [1]: 0.8269 | PET-inhibiting / biological activity in words [2]: medium PET inhibiting activity | IC50 [2]: 50.1 µM | MR (bulk parameter, reflecting bulkiness) [4]: 8.7 | σ (Hammett's parameter) [4]: 1.10

— publication PMC6259458, “Investigating the Spectrum of Biological Activity of Ring-Substituted Salicylanilides and Carbamoylphenylcarbamates” (Molecules, 2010)
